Measured values: PubChem BioAssay (NCI)
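Assay format: 96-well plates, 48-hour exposure. Definition used: TGI = concentration required for complete inhibition of growth.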

Columns and labels:
Assay in all cases: inhibition of tumour cell growth, NCI panel, 48 h
A498 renal = test system: A498 renal
ACHN renal = test system: ACHN renal
CCRF-CEM leukemia = test system: CCRF-CEM leukemia
COLO 205 colon = test system: COLO 205 colon
DMS 114 small cell lung = test system: DMS 114 small cell lung
HCC-2998 colon = test system: HCC-2998 colon
HCT-116 colon = test system: HCT-116 colon
HOP-62 NSCLC = test system: HOP-62 NSCLC
HOP-92 NSCLC = test system: HOP-92 NSCLC
HT29 colon = test system: HT29 colon
IGROV1 ovarian = test system: IGROV1 ovarian
K-562 leukemia = test system: K-562 leukemia
KM12 colon = test system: KM12 colon
LXFL 529 NSCLC = test system: LXFL 529 NSCLC
M14 melanoma = test system: M14 melanoma
M19-MEL melanoma = test system: M19-MEL melanoma
MOLT-4 leukemia = test system: MOLT-4 leukemia
NCI-H23 lung = test system: NCI-H23 lung
NCI-H460 lung = test system: NCI-H460 lung
NCI-H522 lung = test system: NCI-H522 lung
OVCAR-3 ovarian = test system: OVCAR-3 ovarian
OVCAR-4 ovarian = test system: OVCAR-4 ovarian
RPMI-8226 leukemia = test system: RPMI-8226 leukemia
RXF 393 renal = test system: RXF 393 renal
SF-268 CNS = test system: SF-268 CNS
SF-295 CNS = test system: SF-295 CNS
SF-539 CNS = test system: SF-539 CNS
SK-MEL-2 melanoma = test system: SK-MEL-2 melanoma
SK-MEL-28 melanoma = test system: SK-MEL-28 melanoma
SK-OV-3 ovarian = test system: SK-OV-3 ovarian
SNB-19 CNS = test system: SNB-19 CNS
SNB-75 CNS = test system: SNB-75 CNS
SNB-78 CNS = test system: SNB-78 CNS
SR leukemia = test system: SR leukemia
UACC-257 melanoma = test system: UACC-257 melanoma
UACC-62 melanoma = test system: UACC-62 melanoma
UO-31 renal = test system: UO-31 renal
786-0 renal = test system: 786-0 renal
A549 NSCLC = test system: A549 NSCLC
CAKI-1 renal = test system: CAKI-1 renal
DLD-1 colon = test system: DLD-1 colon
DMS 273 small cell lung = test system: DMS 273 small cell lung
EKVX NSCLC = test system: EKVX NSCLC
HCT-15 colon = test system: HCT-15 colon
HL-60(TB) leukemia = test system: HL-60(TB) leukemia
HOP-18 NSCLC = test system: HOP-18 NSCLC
KM20L2 colon = test system: KM20L2 colon
LOX IMVI melanoma = test system: LOX IMVI melanoma
MALME-3M melanoma = test system: MALME-3M melanoma
NCI-H226 lung = test system: NCI-H226 lung
OVCAR-5 ovarian = test system: OVCAR-5 ovarian
OVCAR-8 ovarian = test system: OVCAR-8 ovarian
SK-MEL-5 melanoma = test system: SK-MEL-5 melanoma
SN12C renal = test system: SN12C renal
SW-620 colon = test system: SW-620 colon
TK-10 renal = test system: TK-10 renal
U251 CNS = test system: U251 CNS

COc1cc2ccc1NC(=O)N1CCN(CC1)C(=O)Nc1ccc(cc1OC)-c1ccc(c(OC)c1)NC(=O)N1CCN(CC1)C(=O)Nc1ccc-2cc1OC
TGI (A498 renal): > 100 µM
TGI (ACHN renal): > 100 µM
TGI (CCRF-CEM leukemia): > 100 µM
TGI (COLO 205 colon): > 100 µM
TGI (DMS 114 small cell lung): > 100 µM
TGI (HCC-2998 colon): > 100 µM
TGI (HCT-116 colon): > 100 µM
TGI (HOP-62 NSCLC): > 100 µM
TGI (HOP-92 NSCLC): > 100 µM
TGI (HT29 colon): > 100 µM
TGI (IGROV1 ovarian): > 100 µM
TGI (K-562 leukemia): > 100 µM
TGI (KM12 colon): > 100 µM
TGI (LXFL 529 NSCLC): > 100 µM
TGI (M14 melanoma): > 100 µM
TGI (M19-MEL melanoma): > 100 µM
TGI (MOLT-4 leukemia): > 100 µM
TGI (NCI-H23 lung): > 100 µM
TGI (NCI-H460 lung): > 100 µM
TGI (NCI-H522 lung): > 100 µM
TGI (OVCAR-3 ovarian): > 100 µM
TGI (OVCAR-4 ovarian): > 100 µM
TGI (RPMI-8226 leukemia): > 100 µM
TGI (RXF 393 renal): > 100 µM
TGI (SF-268 CNS): > 100 µM
TGI (SF-295 CNS): > 100 µM
TGI (SF-539 CNS): > 100 µM
TGI (SK-MEL-2 melanoma): > 100 µM
TGI (SK-MEL-28 melanoma): > 100 µM
TGI (SK-OV-3 ovarian): > 100 µM
TGI (SNB-19 CNS): > 100 µM
TGI (SNB-75 CNS): > 100 µM
TGI (SNB-78 CNS): > 100 µM
TGI (SR leukemia): > 100 µM
TGI (UACC-257 melanoma): > 100 µM
TGI (UACC-62 melanoma): > 100 µM
TGI (UO-31 renal): > 100 µM

COC(=O)C1Cc2c([nH]c3ccccc23)C(c2ccccc2O)N1 (stereo not drawn)
TGI (786-0 renal): > 100 µM
TGI (A498 renal): > 100 µM
TGI (A549 NSCLC): > 100 µM
TGI (ACHN renal): > 100 µM
TGI (CAKI-1 renal): > 100 µM
TGI (CCRF-CEM leukemia): > 100 µM
TGI (COLO 205 colon): 93.8 µM
TGI (DLD-1 colon): > 100 µM
TGI (DMS 114 small cell lung): > 100 µM
TGI (DMS 273 small cell lung): > 100 µM
TGI (EKVX NSCLC): > 100 µM
TGI (HCC-2998 colon): > 100 µM
TGI (HCT-116 colon): > 100 µM
TGI (HCT-15 colon): > 100 µM
TGI (HL-60(TB) leukemia): 75.4 µM
TGI (HOP-18 NSCLC): > 100 µM
TGI (HOP-92 NSCLC): > 100 µM
TGI (HT29 colon): > 100 µM
TGI (IGROV1 ovarian): > 100 µM
TGI (K-562 leukemia): > 100 µM
TGI (KM12 colon): > 100 µM
TGI (KM20L2 colon): > 100 µM
TGI (LOX IMVI melanoma): > 100 µM
TGI (LXFL 529 NSCLC): > 100 µM
TGI (M14 melanoma): > 100 µM
TGI (MALME-3M melanoma): > 100 µM
TGI (MOLT-4 leukemia): > 100 µM
TGI (NCI-H226 lung): > 100 µM
TGI (NCI-H23 lung): > 100 µM
TGI (NCI-H460 lung): 47.1 µM
TGI (NCI-H522 lung): > 100 µM
TGI (OVCAR-3 ovarian): > 100 µM
TGI (OVCAR-4 ovarian): > 100 µM
TGI (OVCAR-5 ovarian): > 100 µM
TGI (OVCAR-8 ovarian): > 100 µM
TGI (SF-295 CNS): > 100 µM
TGI (SF-539 CNS): > 100 µM
TGI (SK-MEL-2 melanoma): > 100 µM
TGI (SK-MEL-28 melanoma): > 100 µM
TGI (SK-MEL-5 melanoma): > 100 µM
TGI (SK-OV-3 ovarian): > 100 µM
TGI (SN12C renal): > 100 µM
TGI (SNB-19 CNS): > 100 µM
TGI (SNB-75 CNS): > 100 µM
TGI (SR leukemia): > 100 µM
TGI (SW-620 colon): > 100 µM
TGI (TK-10 renal): > 100 µM
TGI (U251 CNS): > 100 µM
TGI (UACC-257 melanoma): > 100 µM
TGI (UACC-62 melanoma): > 100 µM
TGI (UO-31 renal): 97.9 µM
